According to patent US10973251B1, “Nutritional treatment for cancer” (The Board of Trustees of the Leland Stanford Junior …, priority 2015, dated 2021):

Legend:
Format in all cases: cell-based, human
[1] = system: H661; test: relative growth in dropout media (XTT / CellTiter-Glo); settings: for relief of suppressed growth by augmented supplementation (in words): cystine and tyrosine dropouts, 20 times; for relative growth: three days
Protocol: (§1) To establish the screening assay for the nutritional weakness of cancer cells, 5 human blood cancer cell lines, 4 human lung cancer cell lines, 1 human colon cancer cell line, 1 human liver cancer cell line, 5 human breast cancer cell lines, and 3 human prostate cancer cell lines were used (Table 1). All 19 cell lines were cultured in reconstituted complementary RPM11640 based media R-comp (Table 2) for more than 10 days before screening assays.
(§2) To test for nutritional weaknesses of cancer cell lines or primary cancer cells, each individual non-essential amino acid was dropped out from the R-comp media (Table 2). Multiple amino acid dropout media was used to test combinatorial effects. Prior to the experiments, cells were first acclimated in R-comp media, and then harvested and washed in EBSS solution. The cell density was adjusted to 1-3×10^5 cells/ml before adding to equal volumes of 2× dropout media plus 2× R-comp (positive control) in a 96-well plate. The plates were then placed in an incubator set at 37° C. with a 5% CO2 supply. Five technical replicates were used for each medium treatment. For each cell line, at least three biological replicates were performed with 2 time-points (day 1 and day 3).
(§3) Cell growth was analyzed with two cell viability methods (XTT and CellTiter-Glo-based assays). In the XTT-based assay, cell growth is measured by absorbance at 450 nm after adding the XTT reagent to each culture and incubating under the same culture conditions for 2 hours according to the manufacturer's instructions (ThermoFisher X6493). Absorption at 690 nm was also measured as background and subtracted from absorption at 450 nm. In the CellTiter-Glo-based assay (Promega, G7572), cell growth is measured by luminescence with a dwelling time of 200 milliseconds on a Tecan plate reader.
(§4) The relative growth is calculated with the following equation: Growth %=(readingdropout−average(readingsblank))/(average(readingsR-comp)−average(readingsblank))×100%

[2] = system: U937; test: as above; settings: for relief of suppressed growth by augmented supplementation (in words): cystine and tyrosine dropouts, 20 times
Protocol: as §1, §2, §3, §4

[3] = system: H520; test: as above; settings: for relative growth: three days
Protocol: as §1, §2, §3, §4

[4] = system: H69; test: as above; settings: for relative growth: three days
Protocol: as §1, §2, §3, §4

[5] = system: HCT116; test: as above; settings: for growth with vitamin supplementation in the absence of cystine (in words): 50×
Protocol: as §1, §2, §3, §4

[6] = system: K562; test: as above; settings: for relative growth: —Cys, three days, CellTiter-Glo
Protocol: as §1, §2, §3, §4

[7] = system: cancer cell lines; test: growth assay in dropout media, cancer cell lines as a group; settings: up to 50× strength; cell lines sensitive to cystine dropout
Protocol: as §1
To test for nutritional weaknesses of cancer cell lines or primary cancer cells, each individual non-essential amino acid was dropped out from the R-comp media (Table 2). Multiple amino acid dropout media was used to test combinatorial effects. Prior to the experiments, cells were first acclimated in R-comp media, and then harvested and washed in EBSS solution. […]
as §3, with “reader. […]” for “reader.”

[8] = system: HCC1187; test: relative growth in dropout media (XTT / CellTiter-Glo); settings: —Cys (5x Met), vitamin supplementation 50x, three days, Cell-Titer-Glo
Protocol: as §1, §2, §3, §4

[9] = system: HCC1599; test: as above
Protocol: as §1, §2, §3, §4

[10] = system: MDA-MB-453; test: as above
Protocol: as §1, §2, §3, §4

[11] = system: C4-28; test: as above; settings: —Cys (5x Met), vitamin supplementation 50x, three days, Cell-Titer-Glo
Protocol: as §1, §2, §3, §4

[12] = system: GA10; test: as above
Protocol: as §1, §2, §3, §4

[13] = system: H1437; test: as above
Protocol: as §1, §2, §3, §4

[14] = system: HCC70; test: as above; settings: —Cys (5x Met), vitamin supplementation 50x, three days, Cell-Titer-Glo
Protocol: as §1, §2, §3, §4

[15] = system: HL60; test: as above; settings: —Cys (5x Met), vitamin supplementation 50x, three days, Cell-Titer-Glo
Protocol: as §1, §2, §3, §4

[16] = system: HepG2; test: as above; settings: —Cys (5x Met), vitamin supplementation 50x, three days, Cell-Titer-Glo
Protocol: as §1, §2, §3, §4

[17] = system: Jurkat; test: as above
Protocol: as §1, §2, §3, §4

[18] = system: MDA-MB-231; test: as above; settings: —Cys (5x Met), vitamin supplementation 50x, three days, Cell-Titer-Glo
Protocol: as §1, §2, §3, §4

[19] = system: PC-3; test: as above; settings: —Cys (5x Met), vitamin supplementation 50x, three days, Cell-Titer-Glo
Protocol: as §1, §2, §3, §4

[20] = system: VCaP; test: as above; settings: —Cys (5x Met), vitamin supplementation 50x, three days, Cell-Titer-Glo
Protocol: as §1, §2, §3, §4

[21] = —Cys (5x Met), vitamin supplementation 50x, Cell-Titer-Glo
[22] = 0.1× level of cystine supplementation
[23] = —Cys, +Cys 0.01x (5x Met), CellTiter-Glo
[24] = —Cys, +Cys 0.02x (5x Met), CellTiter-Glo
[25] = —Cys, +Cys 0.05x (5x Met), CellTiter-Glo
[26] = —Cys, +Cys 0.1x (5x Met), CellTiter-Glo
[27] = —Cys, +Cys 0.5x (5x Met), CellTiter-Glo
[28] = —Cys (5x Met), vitamin supplementation 50x, three days, Cell-Titer-Glo
[29] = —Cys, +Glut 2.5x, CellTiter-Glo
[30] = —Cys, +Glut 100x, CellTiter-Glo

N[C@@H](Cc1ccccc1)C(=O)O [phenylalanine]
relief of suppressed growth by augmented supplementation (in words) [1]: not brought back | relief of suppressed growth by augmented supplementation (in words) [2]: not brought back

CSCC[C@H](N)C(=O)O [+Met, methionine]
relative growth ([3]; —Cys, +Met 10x, CellTiter-Glo): 7.3% | relative growth ([3]; —Cys, +Met 50x, CellTiter-Glo): 16.7% | relief of suppressed growth by augmented supplementation (in words) [1]: not brought back | relative growth ([1]; —Cys, +Met 10x, CellTiter-Glo): 0.1% | relative growth ([1]; —Cys, +Met 50x, CellTiter-Glo): 0.1% | relative growth ([4]; —Cys, +Met 10x, CellTiter-Glo): 1.2% | relative growth ([4]; —Cys, +Met 50x, CellTiter-Glo): 1.2% | restoration of growth in the absence of cystine (in words) ([5]; 10×): substantially restore HCT116 growth | relative growth ([6]; +Met 10x): 1.6% | relative growth ([6]; +Met 50x): 1.1% | relief of suppressed growth by augmented supplementation (in words) [2]: not brought back | promotion of growth under cystine dropout (in words) [7]: failed to promote the growth

Cc1ncc(CO)c(CO)c1O [B6, pyridoxine]
relative growth [3, 21]: 0.2% | relative growth [1, 21]: 0.9% | relative growth [4, 21]: 5.2% | relative growth [8]: 2.2%

O=C(O)CCCC[C@@H]1SC[C@@H]2NC(=O)N[C@@H]21 [B7, biotin]
relative growth [3, 21]: 0.2% | relative growth [1, 21]: 0.2% | relative growth [4, 21]: 5.7% | relative growth [8]: 5.8%

Cc1cc2nc3c(=O)[nH]c(=O)nc-3n(C[C@H](O)[C@H](O)[C@H](O)CO)c2cc1C [B2, riboflavin]
relative growth [3, 21]: 0.3% | relative growth [1, 21]: 0.2% | relative growth [4, 21]: 5.0% | relative growth [8]: 1.0% | growth with vitamin supplementation in the absence of cystine (in words) [5]: even more drastic growth suppression

Cc1ncc(C[n+]2csc(CCO)c2C)c(N)n1 [B1, thiamine]
relative growth [3, 21]: 0.5% | relative growth [1, 21]: 1.5% | relative growth [4, 21]: 5.8% | relative growth [8]: 6.2% | growth with vitamin supplementation in the absence of cystine (in words) [9]: substantially restored | growth with vitamin supplementation in the absence of cystine (in words) [5]: largely restored | growth with vitamin supplementation in the absence of cystine (in words) ([10]; 50×): growth was promoted

N[C@@H](CSSC[C@H](N)C(=O)O)C(=O)O [+Cys (5x Met), cystine]
restoration of growth by adding back cystine (in words) [3, 22]: merely restored | relative growth [3, 23]: 5.2% | relative growth [3, 24]: 4.7% | relative growth [3, 25]: 9.4% | relative growth [3, 26]: 41.8% | relative growth [3, 27]: 110.4% | relative growth [1, 23]: 0.1% | relative growth [1, 24]: 0.1% | relative growth [1, 25]: 0.1% | relative growth [1, 26]: 0.1% | relative growth [1, 27]: 103.2% | relative growth [4, 23]: 1.2% | relative growth [4, 24]: 1.3% | relative growth [4, 25]: 1.2% | relative growth [4, 26]: 2.1% | relative growth [4, 27]: 51.8% | restoration of growth by adding back cystine (in words) [6, 22]: substantially restored to the levels of the control | relative growth ([6]; +Cys 0.01x (5x Met)): 1.9% | relative growth ([6]; +Cys 0.02x (5x Met)): 2.2% | relative growth ([6]; +Cys 0.05x (5x Met)): 9.5% | relative growth ([6]; +Cys 0.1x (5x Met)): 36.5% | relative growth ([6]; +Cys 0.5x (5x Met)): 101.5%

calcium pantothenate [B5]
relative growth [11]: 0.2% | relative growth [12, 28]: 4.3% | relative growth [13, 28]: 0.5% | relative growth [3, 21]: 0.3% | relative growth [1, 21]: 0.2% | relative growth [4, 21]: 5.5% | relative growth [8]: 0.0% | relative growth [9, 28]: 4.9% | relative growth [14]: 0.9% | relative growth [5, 28]: 56.4% | relative growth [15]: 0.1% | relative growth [16]: 1.4% | relative growth [17, 28]: 0.3% | relative growth [18]: 0.2% | relative growth [10, 28]: 104.4% | relative growth [19]: 0.8% | relative growth [2, 28]: 0.0% | relative growth [20]: 0.1%

N[C@@H](CCC(=O)N[C@@H](CS)C(=O)NCC(=O)O)C(=O)O [+Glut, glutathione]
restoration of growth suppressed by cystine dropout (in words) ([12]; 10× supplementation): not significantly | restoration of growth suppressed by cystine dropout (in words) ([13]; 10× supplementation): substantially restored the suppressed growth | relative growth [3, 29]: 21.3% | relative growth ([3]; —Cys, +Glut 10x, CellTiter-Glo): 71.3% | relative growth ([3]; —Cys, +Glut 50x, CellTiter-Glo): 97.8% | relative growth [3, 30]: 105.7% | relative growth [1, 29]: 0.2% | relative growth ([1]; —Cys, +Glut 10x, CellTiter-Glo): 13.0% | relative growth ([1]; —Cys, +Glut 50x, CellTiter-Glo): 75.4% | relative growth [1, 30]: 41.1% | restoration of growth suppressed by cystine dropout (in words) ([4]; 10× supplementation): not significantly | relative growth [4, 29]: 1.4% | relative growth ([4]; —Cys, +Glut 10x, CellTiter-Glo): 2.1% | relative growth ([4]; —Cys, +Glut 50x, CellTiter-Glo): 3.6% | relative growth [4, 30]: 2.8% | restoration of growth suppressed by cystine dropout (in words) ([17]; 10× supplementation): substantially restored the suppressed growth | relative growth ([6]; +Glut 2.5x): 16.2% | relative growth ([6]; +Glut 10x): 78.8% | relative growth ([6]; +Glut 50x): 84.4% | relative growth ([6]; +Glut 100x): 98.9%

NC(=O)c1cccnc1 [B3, niacinamide]
relative growth [3, 21]: 0.3% | relative growth [1, 21]: 0.2% | relative growth [4, 21]: 5.3% | relative growth [8]: 3.4%
